# From patent US20140303092A1 (CHIMERIX, INC., priority 2011, published 2014)
# “And” between values parts separate entries of the source, which are not always exact repeats. Equal entries are not always repeated.
# System: CMV
# Assay: Study HDP-CDV-201: prevention or control of CMV infection in R+ HSCT recipients (efficacy)
# Type: in vivo, human (adult allogeneic HSCT recipients)
# Conditions: for Rate of CMV Disease or End of Treatment CMV Infection (≧200 copies/ml): missing=infection; for Rate of CMV DNAemia ≧1000 copies/mL during the treatment period: post hoc; for Developed CMV DNAemia (≧100 copies/mL) during the treatment period: plasma CMV DNA negative at baseline
# Method: The clinical study of the current invention (HDP-CDV-201) was a 9-11 week randomized, placebo-controlled, double-blind, dose-escalation study (40 mg weekly [QW], 100 mg QW, 200 mg QW, 200 mg twice-weekly [BIW], and 100 mg BIW) of HDP-CDV for the prevention of CMV infection post-HCT. Treatment was initiated at the time of engraftment and continued until Week 13 post-HCT. HDP-CDV, at various doses, was active and well tolerated in the prevention CMV infection or disease.
# Clinical Studies of HDP-CDV were performed and described in detail in the following Examples. For example, HDP-CDV-201 is a placebo-controlled, dose-escalating trial in HSCT CMV (R+) recipients, evaluating the ability of HDP-CDV to prevent or control CMV infection was carried out. Five cohorts were established in which participants or subjects received either placebo or the HDP-CDV orally, in doses ranging from 40 mg weekly (QW) to 200 mg twice weekly (BIW). Subjects who were post-HSCT were enrolled at the time of engraftment and randomized to HDP-CDV or placebo (3 to 1 ratio) and received blinded therapy until approximately 100 day post-transplantation. HDP-CDV doses were 40 mg QW, 100 mg QW, 200 mg QW, 200 mg BIW and 100 mg BIW. Escalation to the next dose was decided by the data monitoring committee after review of the safety data from the previous Cohort. Subjects who developed CMV disease or CMV infection requiring pre-emptive therapy with local standard of care were discontinued from blinded therapy and followed for 4 weeks. Subjects who completed treatment with blinded therapy were followed for 8 weeks post-therapy.
# The primary endpoint was defined as the incidence of CMV disease at any time during treatment or CMV DNAemia≧200 copies/mL at the end of treatment. All subjects who received at least one dose of drug/placebo and had at least one efficacy evaluation post baseline were included in the primary analysis, regardless of their CMV DNAemia status (negative or positive) at baseline (mITT population). Results for the pooled HDP-CDV Cohorts and for each Cohort separately were analyzed versus that for pooled placebo.
# The primary efficacy measure for this study was treatment failure, defined as the occurrence of CMV infection, defined as CMV DNAemia>200 copies/mL at the End of Treatment or diagnosis of CMV disease at any time during the treatment period. For the analysis, the following definitions apply:
# For subjects who completed the treatment phase of the study, the End of Treatment was defined as the latest assessment from date of the last dose of study drug and up to 7 days for QW dosing, or the date of the last dose of study drug and up to 4 days for BIW dosing. For subjects who discontinued during the treatment phase of the study, the End of Treatment was defined as the date of the last dose of study drug.
# The time to event was defined as the period between FDD and date of first occurrence of the event of interest (inclusive). The events included onset of CMV DNAemia, onset of CMV disease, and discontinuation because of excluded anti-CMV medications. Time to event/onset was derived as (the event/onset date—FDD)+1.
# As detailed in the Statistical Analysis Plan, a modified CMV stratum was defined prior to conducting the statistical analysis based upon polymerase chain reaction (PCR) results from the central laboratory. If any positive CMV DNA value in plasma was collected before the first dose of study drug (including Screening, Pre-dose, (combined Screening/Pre-dose), CMV for stratification, and FDD), then the subject was placed into the modified CMV positive (≧100 copies/mL) stratum, otherwise the subject was in the modified CMV negative stratum. […]
# [1] = 100 mg BIW, modified CMV negative stratum
# [2] = 100 mg BIW, whole study period, CMV DNA negative at baseline
# [3] = 100 mg QW, CMV modified strata: negative
# [4] = 100 mg QW, CMV modified strata: positive
# [5] = 100 mg QW, active treatment period
# [6] = 100 mg QW, modified CMV negative stratum
compound,measurement,setting,value
CCCCCCCCCCCCCCCCOCCCOP(=O)(O)COC(CO)Cn1ccc(N)nc1=O (stereo not drawn) [HDP-CDV],Incidence of CMV disease or initiation of anti-CMV preemptive therapy,"100 mg BIW, mITT",14%
same,Subjects Receiving Antiviral Therapy and/or had CMV disease,"100 mg BIW, mITT",7 (14.0%) subjects (%)
same,Subjects without a CMV event,"100 mg BIW, mITT",43 (86.0%) subjects (%)
same,"Time to Antiviral Therapy, Median","100 mg BIW, mITT",23.0 days
same,Rate of CMV Disease or End of Treatment CMV Infection (≧200 copies/ml),"100 mg BIW, mITT",10%
same,Rate of CMV DNAemia ≧1000 copies/mL during the treatment period,"100 mg BIW, mITT",8%
same,"Time to Antiviral Therapy, Mean","100 mg BIW, mITT, censored values not included",23.1 days
same,"% CMV Event Rate: Incidence of CMV DNAemia >100 copies/mL During Treatment (Fisher analysis, ref 14.3.3.2.1)",[1],9 (22.5%) subjects (%)
same,"% CMV Event Rate: Incidence of CMV DNAemia ≧1,000 copies/mL at any time during treatment",[1],0 subjects (%)
same,% CMV Event Rate: onset of CMV DNAemia During Whole Study,[1],14 (33.3%) subjects (%)
same,"Combined CMV event rate (CMV disease, viremia requiring treatment, viremia ≧1000 copies/mL)",[1],12.2%
same,"Subjects Who Had CMV-related Event (CMV disease, CMV DNAemia ≧1,000 c/mL or initiation of anti-CMV treatment)",[1],5 (12.2%) subjects (%)
same,Subjects without a CMV-related event,[1],36 (87.8%) subjects (%)
same,Developed CMV DNAemia (≧100 copies/mL) during the treatment period,"100 mg BIW, mITT",10 (23.8.%) N(%) and 10 (23.8%) N(%)
same,"Time to CMV DNAemia (≧100 copies/mL), Median","100 mg BIW, treatment period, CMV DNA negative at baseline",20.0 days
same,"Time to CMV DNAemia (≧100 copies/mL), Mean","100 mg BIW, treatment period, CMV DNA negative at baseline, censored values not included",28.8 days
same,Number of Subjects who had CMV DNAemia (≧100 copies/mL) by the end of study,[2],14
same,"Time to CMV DNAemia (≧100 copies/mL), Mean",[2],42.8 days
same,"Time to CMV DNAemia (≧100 copies/mL), Median",[2],32.5 days
same,"Incidence of composite endpoint (initiation of anti-CMV therapy or CMV disease or CMV DNAemia >1,000 copies/mL)",100 mg QW,21.7%
same,Difference (HDP-CDV minus placebo) in infection rate,[3],−16.7%
same,"Difference (HDP-CDV minus placebo) in rate of CMV DNAemia ≧1,000 copies/ml",[3],−23.2%
same,"Rate of CMV DNAemia ≧1,000 copies/ml during the treatment period",[3],8.7%
same,Rate of CMV Disease or End of Treatment CMV Infection,[3],13.0%
same,"Difference (HDP-CDV minus placebo) in rate of CMV DNAemia ≧1,000 copies/mL",[4],16.7%
same,"Rate of CMV DNAemia ≧1,000 copies/mL during the treatment period",[4],100.0%
same,Rate of CMV Disease or End of Treatment CMV Infection,"100 mg QW, aGVHD randomization strata: negative",24.0%
same,Difference (HDP-CDV minus placebo) in infection rate,"100 mg QW, aGVHD strata: negative",−8.1%
same,Discontinuation: Emergence of CMV disease,[5],3 Subject n (%) and 3 (11.1%) Subject n (%)
same,Discontinuation: Initiation of alternate CMV therapy,[5],4 (14.8%) Subject n (%)
same,Difference (HDP-CDV minus placebo) in rate of CMV DNAemia ≧1000 copies/mL,"100 mg QW, mITT",−20.2%
same,Difference (HDP-CDV minus placebo) in rate of CMV disease or end of treatment CMV infection,"100 mg QW, mITT",−15.1%
same,Subjects Receiving Antiviral Therapy and/or had CMV disease,"100 mg QW, mITT",7 (25.9%) subjects (%)
same,Subjects without a CMV event,"100 mg QW, mITT",20 (74.1%) subjects (%)
same,"Time to Antiviral Therapy, Median","100 mg QW, mITT",41.0 days
same,Rate of CMV Disease or End of Treatment CMV Infection (≧200 copies/ml),"100 mg QW, mITT",22% and 22.2%
same,Rate of CMV DNAemia ≧1000 copies/mL during the treatment period,"100 mg QW, mITT",22.2%
same,"Time to Antiviral Therapy, Mean","100 mg QW, mITT, censored values not included",41.9 days
same,"% CMV Event Rate: Incidence of CMV DNAemia >100 copies/mL During Treatment (Fisher analysis, ref 14.3.3.2.1)",[6],5 (21.7%) subjects (%)
same,"% CMV Event Rate: Incidence of CMV DNAemia ≧1,000 copies/mL at any time during treatment",[6],2 (8.7%) subjects (%)
same,% CMV Event Rate: onset of CMV DNAemia During Whole Study,[6],8 (34.8%) subjects (%)
same,"Subjects Who Had CMV-related Event (CMV disease, CMV DNAemia ≧1,000 c/mL or initiation of anti-CMV treatment)",[6],5 (21.7%) subjects (%)
same,Subjects without a CMV-related event,[6],18 (78.3%) subjects (%)
same,Developed CMV DNAemia (≧100 copies/mL) during the treatment period,"100 mg QW, mITT",5 (21.7%) N(%)
same,"Time to CMV DNAemia (≧100 copies/mL), Median","100 mg QW, treatment period, CMV DNA negative at baseline",30.0 days
